Results from ChEMBL document CHEMBL4507294, “Data for DCP probe MSD-CYP11B2” (2021).

Legend:
[1] = molecular target: Serine/threonine-protein kinase 36 (Homo sapiens) (UniProt Q9NRP7); details: Compound concentration 1000.0 nM
[2] = molecular target: Glycogen synthase kinase-3 beta (Homo sapiens) (UniProt P49841); details: Compound concentration 1000.0 nM
[3] = system: Epidermal growth factor receptor (Homo sapiens), P00533 [G719S]; details: Compound concentration 1000.0 nM
[4] = molecular target: Mitogen-activated protein kinase kinase kinase 1 (Homo sapiens) (UniProt Q13233); details: Compound concentration 1000.0 nM
[5] = molecular target: Myosin light chain kinase 2, skeletal/cardiac muscle (Homo sapiens) (UniProt Q9H1R3); details: Compound concentration 1000.0 nM
[6] = system: Phosphatidylinositol 4,5-bisphosphate 3-kinase catalytic subunit alpha isoform (Homo sapiens), P42336 [E545K]; details: Compound concentration 1000.0 nM
[7] = system: Proto-oncogene tyrosine-protein kinase receptor Ret (Homo sapiens), P07949 [V804M]; details: Compound concentration 1000.0 nM
[8] = molecular target: Calcium/calmodulin-dependent protein kinase type II subunit delta (Homo sapiens) (UniProt Q13557); details: Compound concentration 1000.0 nM
[9] = molecular target: Sodium-dependent noradrenaline transporter (Homo sapiens) (UniProt P23975); details: Compound concentration 10.0 uM
[10] = system: Receptor-type tyrosine-protein kinase FLT3 (Homo sapiens), P36888 [UNDEFINED MUTATION]; details: Compound concentration 1000.0 nM
[11] = system: Phosphatidylinositol 4,5-bisphosphate 3-kinase catalytic subunit alpha isoform (Homo sapiens), P42336 [H1047L]; details: Compound concentration 1000.0 nM
[12] = molecular target: Mitogen-activated protein kinase 8 (Homo sapiens) (UniProt P45983); details: Compound concentration 1000.0 nM
[13] = molecular target: Mitogen-activated protein kinase kinase kinase 7 (Homo sapiens) (UniProt O43318); details: Compound concentration 1000.0 nM
[14] = molecular target: Calcium/calmodulin-dependent protein kinase type II subunit alpha (Homo sapiens) (UniProt Q9UQM7); details: Compound concentration 1000.0 nM
[15] = molecular target: Atypical kinase COQ8A, mitochondrial (Homo sapiens) (UniProt Q8NI60); details: Compound concentration 1000.0 nM
[16] = molecular target: Mitotic checkpoint serine/threonine-protein kinase BUB1 (Homo sapiens) (UniProt O43683); details: Compound concentration 1000.0 nM
[17] = molecular target: Protein-tyrosine kinase 2-beta (Homo sapiens) (UniProt Q14289); details: Compound concentration 1000.0 nM
[18] = molecular target: Tyrosine-protein kinase Fer (Homo sapiens) (UniProt P16591); details: Compound concentration 1000.0 nM
[19] = molecular target: Tyrosine-protein kinase ABL2 (Homo sapiens) (UniProt P42684); details: Compound concentration 1000.0 nM
[20] = molecular target: Activin receptor type-2A (Homo sapiens) (UniProt P27037); details: Compound concentration 1000.0 nM
[21] = molecular target: Glycogen synthase kinase-3 alpha (Homo sapiens) (UniProt P49840); details: Compound concentration 1000.0 nM
[22] = molecular target: D(1B) dopamine receptor (Homo sapiens) (UniProt P21918); details: Compound concentration 10.0 uM
[23] = molecular target: MAP kinase-activated protein kinase 2 (Homo sapiens) (UniProt P49137); details: Compound concentration 1000.0 nM
[24] = molecular target: Myosin light chain kinase (Homo sapiens) (UniProt Q32MK0); details: Compound concentration 1000.0 nM
[25] = molecular target: Rhodopsin kinase GRK1 (Homo sapiens) (UniProt Q15835); details: Compound concentration 1000.0 nM
[26] = molecular target: Serine/threonine-protein kinase Sgk3 (Homo sapiens) (UniProt Q96BR1); details: Compound concentration 1000.0 nM
[27] = molecular target: Uncharacterized serine/threonine-protein kinase SBK3 (Homo sapiens) (UniProt P0C264); details: Compound concentration 1000.0 nM
[28] = molecular target: Mitogen-activated protein kinase kinase kinase 2 (Homo sapiens) (UniProt Q9Y2U5); details: Compound concentration 1000.0 nM
[29] = molecular target: Serine/threonine-protein kinase VRK2 (Homo sapiens) (UniProt Q86Y07); details: Compound concentration 1000.0 nM
[30] = molecular target: Serine/threonine-protein kinase 3 (Homo sapiens) (UniProt Q13188); details: Compound concentration 1000.0 nM
[31] = molecular target: Myotonin-protein kinase (Homo sapiens) (UniProt Q09013); details: Compound concentration 1000.0 nM
[32] = molecular target: Dual specificity mitogen-activated protein kinase kinase 5 (Homo sapiens) (UniProt Q13163); details: Compound concentration 1000.0 nM
[33] = molecular target: Serine/threonine-protein kinase pim-3 (Homo sapiens) (UniProt Q86V86); details: Compound concentration 1000.0 nM
[34] = system: Tyrosine-protein kinase ABL1 (Homo sapiens), P00519 [Y253F]; details: Compound concentration 1000.0 nM
[35] = molecular target: Calcium/calmodulin-dependent protein kinase type 1 (Homo sapiens) (UniProt Q14012); details: Compound concentration 1000.0 nM
[36] = molecular target: Serine/threonine-protein kinase ICK (Homo sapiens) (UniProt Q9UPZ9); details: Compound concentration 1000.0 nM
[37] = molecular target: BDNF/NT-3 growth factors receptor (Homo sapiens) (UniProt Q16620); details: Compound concentration 1000.0 nM
[38] = molecular target: High affinity nerve growth factor receptor (Homo sapiens) (UniProt P04629); details: Compound concentration 1000.0 nM
[39] = molecular target: Mitogen-activated protein kinase 3 (Homo sapiens) (UniProt P27361); details: Compound concentration 1000.0 nM
[40] = molecular target: Receptor tyrosine-protein kinase erbB-2 (Homo sapiens) (UniProt P04626); details: Compound concentration 1000.0 nM
[41] = molecular target: Phosphatidylinositol 4-kinase beta (Homo sapiens) (UniProt Q9UBF8); details: Compound concentration 1000.0 nM
[42] = molecular target: Mitogen-activated protein kinase 7 (Homo sapiens) (UniProt Q13164); details: Compound concentration 1000.0 nM
[43] = system: Mast/stem cell growth factor receptor Kit (Homo sapiens), P10721 [V559D,V654A]; details: Compound concentration 1000.0 nM
[44] = molecular target: Wee1-like protein kinase (Homo sapiens) (UniProt P30291); details: Compound concentration 1000.0 nM
[45] = molecular target: Cyclin-dependent kinase 13 (Homo sapiens) (UniProt Q14004); details: Compound concentration 1000.0 nM

Sequence of Mitogen-activated protein kinase kinase kinase 7 (Homo sapiens) (O43318 whole entry): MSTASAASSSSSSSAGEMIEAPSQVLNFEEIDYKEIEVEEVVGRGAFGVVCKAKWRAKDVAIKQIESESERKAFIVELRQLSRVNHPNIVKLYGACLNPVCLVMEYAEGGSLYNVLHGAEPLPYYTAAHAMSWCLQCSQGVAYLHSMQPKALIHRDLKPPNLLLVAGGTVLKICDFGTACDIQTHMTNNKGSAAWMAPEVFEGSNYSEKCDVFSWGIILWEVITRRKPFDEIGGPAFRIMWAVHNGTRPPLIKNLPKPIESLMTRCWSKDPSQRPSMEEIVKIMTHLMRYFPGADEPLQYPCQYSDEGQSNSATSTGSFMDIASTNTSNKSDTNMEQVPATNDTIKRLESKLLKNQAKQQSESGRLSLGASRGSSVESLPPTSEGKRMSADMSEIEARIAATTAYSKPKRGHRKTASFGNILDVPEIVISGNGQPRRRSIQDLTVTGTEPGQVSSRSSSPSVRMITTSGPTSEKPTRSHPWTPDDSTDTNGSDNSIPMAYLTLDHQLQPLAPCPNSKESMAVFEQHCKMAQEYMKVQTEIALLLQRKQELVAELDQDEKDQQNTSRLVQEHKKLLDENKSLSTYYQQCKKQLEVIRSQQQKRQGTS
Sequence of Mitotic checkpoint serine/threonine-protein kinase BUB1 (Homo sapiens) (O43683 whole entry, looked up): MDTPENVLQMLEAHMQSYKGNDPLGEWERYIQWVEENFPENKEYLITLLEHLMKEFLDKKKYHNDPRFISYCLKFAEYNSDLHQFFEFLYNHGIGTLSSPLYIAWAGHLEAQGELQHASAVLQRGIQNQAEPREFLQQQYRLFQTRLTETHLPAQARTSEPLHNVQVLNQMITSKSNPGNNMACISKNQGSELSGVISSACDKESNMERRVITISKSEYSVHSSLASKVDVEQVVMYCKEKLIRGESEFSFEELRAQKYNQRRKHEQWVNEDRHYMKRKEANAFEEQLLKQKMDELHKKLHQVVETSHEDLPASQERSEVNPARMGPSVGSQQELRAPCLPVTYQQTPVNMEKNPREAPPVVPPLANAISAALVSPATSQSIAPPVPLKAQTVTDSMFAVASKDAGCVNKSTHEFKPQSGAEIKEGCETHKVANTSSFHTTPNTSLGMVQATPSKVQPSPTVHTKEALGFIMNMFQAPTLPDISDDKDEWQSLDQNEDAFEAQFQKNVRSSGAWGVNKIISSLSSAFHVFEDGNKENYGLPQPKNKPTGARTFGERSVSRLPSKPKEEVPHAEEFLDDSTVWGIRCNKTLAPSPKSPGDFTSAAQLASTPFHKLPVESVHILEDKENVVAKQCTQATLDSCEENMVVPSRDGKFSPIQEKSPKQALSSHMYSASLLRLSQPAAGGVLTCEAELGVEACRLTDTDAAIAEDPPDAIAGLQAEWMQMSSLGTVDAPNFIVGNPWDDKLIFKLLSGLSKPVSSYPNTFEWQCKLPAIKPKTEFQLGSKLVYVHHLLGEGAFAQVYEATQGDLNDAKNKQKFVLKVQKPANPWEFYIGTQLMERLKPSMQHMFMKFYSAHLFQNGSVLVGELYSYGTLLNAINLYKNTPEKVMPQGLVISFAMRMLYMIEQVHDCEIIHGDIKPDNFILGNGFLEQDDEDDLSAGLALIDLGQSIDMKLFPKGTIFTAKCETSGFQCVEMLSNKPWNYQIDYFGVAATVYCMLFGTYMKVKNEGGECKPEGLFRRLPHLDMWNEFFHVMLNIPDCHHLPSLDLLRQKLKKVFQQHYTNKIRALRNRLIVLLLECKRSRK
Sequence of D(1B) dopamine receptor (Homo sapiens) (P21918 whole entry): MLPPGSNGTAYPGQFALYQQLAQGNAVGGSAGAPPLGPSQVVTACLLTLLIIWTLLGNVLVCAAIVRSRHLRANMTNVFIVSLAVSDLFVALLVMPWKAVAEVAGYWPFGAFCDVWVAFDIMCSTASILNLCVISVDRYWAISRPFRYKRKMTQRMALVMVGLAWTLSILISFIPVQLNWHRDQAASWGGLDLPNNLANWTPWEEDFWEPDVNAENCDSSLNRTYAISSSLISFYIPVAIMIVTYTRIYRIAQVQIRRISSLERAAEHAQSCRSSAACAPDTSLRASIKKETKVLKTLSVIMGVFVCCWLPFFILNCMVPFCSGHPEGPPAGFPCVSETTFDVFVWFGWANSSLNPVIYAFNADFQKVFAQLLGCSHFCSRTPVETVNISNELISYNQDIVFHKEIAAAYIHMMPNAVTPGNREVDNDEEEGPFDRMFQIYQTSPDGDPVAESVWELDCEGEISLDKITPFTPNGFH
Sequence of Wee1-like protein kinase (Homo sapiens) (P30291 whole entry, looked up): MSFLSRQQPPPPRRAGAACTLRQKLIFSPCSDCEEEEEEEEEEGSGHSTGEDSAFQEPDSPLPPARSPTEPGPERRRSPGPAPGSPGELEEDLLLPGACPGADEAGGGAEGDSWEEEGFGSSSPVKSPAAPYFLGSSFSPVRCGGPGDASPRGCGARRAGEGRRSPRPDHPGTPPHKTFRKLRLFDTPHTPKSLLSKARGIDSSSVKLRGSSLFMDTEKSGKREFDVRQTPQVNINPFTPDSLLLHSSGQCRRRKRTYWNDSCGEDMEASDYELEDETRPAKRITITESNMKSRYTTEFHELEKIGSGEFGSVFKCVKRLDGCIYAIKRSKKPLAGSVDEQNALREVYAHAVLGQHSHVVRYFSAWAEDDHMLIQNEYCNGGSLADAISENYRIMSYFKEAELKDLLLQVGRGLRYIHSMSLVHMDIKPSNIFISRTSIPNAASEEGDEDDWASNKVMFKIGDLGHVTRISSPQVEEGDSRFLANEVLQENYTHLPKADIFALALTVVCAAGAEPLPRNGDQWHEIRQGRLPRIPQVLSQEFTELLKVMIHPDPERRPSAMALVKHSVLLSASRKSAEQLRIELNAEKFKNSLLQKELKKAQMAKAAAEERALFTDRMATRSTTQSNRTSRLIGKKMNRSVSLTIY
Sequence of Mitogen-activated protein kinase 7 (Homo sapiens) (Q13164 2-816 limits assumed): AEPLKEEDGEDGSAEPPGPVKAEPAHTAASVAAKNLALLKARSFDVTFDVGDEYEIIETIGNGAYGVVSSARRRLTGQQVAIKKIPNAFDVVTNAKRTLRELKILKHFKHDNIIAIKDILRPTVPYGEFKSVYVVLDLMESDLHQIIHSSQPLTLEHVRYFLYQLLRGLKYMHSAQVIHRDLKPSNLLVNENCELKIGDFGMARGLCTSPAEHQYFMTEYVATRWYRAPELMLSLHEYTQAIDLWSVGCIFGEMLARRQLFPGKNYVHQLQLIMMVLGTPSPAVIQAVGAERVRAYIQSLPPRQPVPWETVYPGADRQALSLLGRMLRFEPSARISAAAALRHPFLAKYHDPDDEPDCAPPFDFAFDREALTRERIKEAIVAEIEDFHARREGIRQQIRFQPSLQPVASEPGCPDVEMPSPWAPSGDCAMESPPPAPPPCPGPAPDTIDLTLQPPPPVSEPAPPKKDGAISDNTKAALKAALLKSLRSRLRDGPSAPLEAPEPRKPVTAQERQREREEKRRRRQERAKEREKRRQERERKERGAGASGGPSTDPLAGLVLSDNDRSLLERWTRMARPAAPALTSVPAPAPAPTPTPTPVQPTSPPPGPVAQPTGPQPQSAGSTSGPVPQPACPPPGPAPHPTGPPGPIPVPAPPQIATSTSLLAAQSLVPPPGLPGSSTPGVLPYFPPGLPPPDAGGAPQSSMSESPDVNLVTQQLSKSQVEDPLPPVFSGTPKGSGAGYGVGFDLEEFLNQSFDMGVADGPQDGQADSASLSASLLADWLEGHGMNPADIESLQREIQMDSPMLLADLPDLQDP
Sequence of Phosphatidylinositol 4,5-bisphosphate 3-kinase catalytic subunit alpha isoform (Homo sapiens), P42336 [E545K] (P42336 whole entry E545K, canonical isoform): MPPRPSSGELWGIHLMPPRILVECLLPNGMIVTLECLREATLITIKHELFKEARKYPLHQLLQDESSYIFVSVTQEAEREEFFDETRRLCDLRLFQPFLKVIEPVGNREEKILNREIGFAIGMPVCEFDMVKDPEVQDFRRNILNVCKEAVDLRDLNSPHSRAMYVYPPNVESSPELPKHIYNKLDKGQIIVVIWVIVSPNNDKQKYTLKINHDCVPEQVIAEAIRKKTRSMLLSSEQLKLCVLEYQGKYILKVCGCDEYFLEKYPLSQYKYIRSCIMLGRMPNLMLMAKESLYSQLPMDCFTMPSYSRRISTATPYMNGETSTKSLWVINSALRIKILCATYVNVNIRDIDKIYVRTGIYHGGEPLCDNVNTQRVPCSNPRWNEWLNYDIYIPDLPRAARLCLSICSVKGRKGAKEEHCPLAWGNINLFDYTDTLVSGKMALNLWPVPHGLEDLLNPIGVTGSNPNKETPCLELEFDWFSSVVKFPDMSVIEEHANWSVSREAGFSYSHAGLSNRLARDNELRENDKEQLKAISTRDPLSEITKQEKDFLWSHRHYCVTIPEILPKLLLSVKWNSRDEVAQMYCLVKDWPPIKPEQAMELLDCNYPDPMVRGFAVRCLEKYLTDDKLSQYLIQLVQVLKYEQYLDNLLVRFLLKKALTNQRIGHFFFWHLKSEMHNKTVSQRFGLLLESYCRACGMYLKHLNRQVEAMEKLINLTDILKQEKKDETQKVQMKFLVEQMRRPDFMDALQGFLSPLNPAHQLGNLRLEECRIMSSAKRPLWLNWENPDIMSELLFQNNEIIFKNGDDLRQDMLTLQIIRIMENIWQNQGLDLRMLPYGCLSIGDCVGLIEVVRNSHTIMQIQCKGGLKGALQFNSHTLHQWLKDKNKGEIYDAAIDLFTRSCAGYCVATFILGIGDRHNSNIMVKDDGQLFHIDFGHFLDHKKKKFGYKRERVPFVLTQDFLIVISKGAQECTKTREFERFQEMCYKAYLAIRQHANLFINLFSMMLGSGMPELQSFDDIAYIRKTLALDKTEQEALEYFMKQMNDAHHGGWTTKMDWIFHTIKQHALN

FC(F)(F)c1ccc2c(c1)nc(-c1cccnc1)n2C1CC1 [MSD-CYP11B2-Negative-control]
inactive: residual activity [1] 84% | residual activity [2] 100% | residual activity [3] 93% | residual activity [4] 100% | residual activity [5] 100% | residual activity [6] 100% | residual activity [7] 100% | residual activity [8] 100% | inhibition [9] 17.2% | residual activity [10] 100% | residual activity [11] 100% | residual activity [12] 93% | residual activity [13] 100% | residual activity [14] 88% | residual activity [15] 100% | residual activity [16] 89% | residual activity [17] 100% | residual activity [18] 100% | residual activity [19] 100% | residual activity [20] 100% | residual activity [21] 100% | inhibition [22] 22.5% | residual activity [23] 100% | residual activity [24] 100% | residual activity [25] 100% | residual activity [26] 100% | residual activity [27] 76% | residual activity [28] 100% | residual activity [29] 100% | residual activity [30] 94% | residual activity [31] 92% | residual activity [32] 96% | residual activity [33] 100% | residual activity [34] 100% | residual activity [35] 100% | residual activity [36] 100% | residual activity [37] 100% | residual activity [38] 100% | residual activity [39] 100% | residual activity [40] 100% | residual activity [41] 94% | residual activity [42] 100% | residual activity [43] 100% | residual activity [44] 93% | residual activity [45] 100%

CC(C)(O)c1cncc(-c2nc3ccc(F)cc3n2C2CC2)c1 [MSD-CYP11B2]
inactive: residual activity [1] 93% | residual activity [2] 100% | residual activity [3] 100% | residual activity [4] 100% | residual activity [5] 97% | residual activity [6] 95% | residual activity [7] 100% | residual activity [8] 100% | inhibition [9] 2.3% | residual activity [10] 100% | residual activity [11] 97% | residual activity [12] 100% | residual activity [13] 100% | residual activity [14] 94% | residual activity [15] 100% | residual activity [16] 99% | residual activity [17] 100% | residual activity [18] 100% | residual activity [19] 100% | residual activity [20] 87% | residual activity [21] 100% | inhibition [22] 21% | residual activity [23] 100% | residual activity [24] 87% | residual activity [25] 100% | residual activity [26] 100% | residual activity [27] 77% | residual activity [28] 100% | residual activity [29] 100% | residual activity [30] 100% | residual activity [31] 71% | residual activity [32] 100% | residual activity [33] 98% | residual activity [34] 100% | residual activity [35] 100% | residual activity [36] 100% | residual activity [37] 100% | residual activity [38] 100% | residual activity [39] 100% | residual activity [40] 100% | residual activity [41] 100% | residual activity [42] 100% | residual activity [43] 87% | residual activity [44] 72% | residual activity [45] 96%
